Measured values published in patent publication US9375438B2, “Inhibitors of NCCa-ATP channels for therapy” (University of Maryland, Baltimore, priority 2007, dated 2016).

Assays:
[1] = Effect of glibenclamide doses on serum glucose; format: in vivo, rat; conditions: uninjured rats and rats with stroke and SCI; dose1-dose4
[2] = tested on: rats with hemi-cervical spinal cord contusion (SCI); assay: SCI model: vimentin immunolabeling of capillaries; format: in vivo, rat; conditions: region of injury; glibenclamide 200 ng/h s.q. vs controls
Method: (§1) SCI injury model. This study was performed in accordance with the guidelines of the Institutional Animal Care and Use Committee. Adult female Long-Evans rats (275-350 gm) were anesthetized (Ketamine, 60 mg/kg plus Xylazine, 7.5 mg/kg, i.p.). The dura at C4-5 was exposed via a left hemilaminectomy. A hemi-cervical spinal cord contusion was created using a blunt force impactor (1.3-mm impactor head driven by a 10 gm weight dropped vertically 25 mm) (Soblosky et al., 2001; Gensel et al., 2006). After SCI, animals were given 10 ml of glucose-free normal saline s.q. Rectal temperature was maintained at ˜37° C. using a servo-controlled warming blanket. Blood gases and serum glucose 10-15 min post-SCI were: pO2, 95±6 mm Hg; pCO2, 46±3 mm Hg; pH, 7.33±0.01; glucose 258±17 mg/dl in controls and pO2, 96±7 mm Hg; pCO2, 45±2 mm Hg; pH, 7.37±0.01; glucose 242±14 mg/dl in glibenclamide-treated animals.
(§2) Drug delivery. […] During the course of the project, slightly different formulations of drug were used, with the best results obtained using stock solutions made by placing 50 mg (or 25 mg) of drug into 10 ml DMSO, and infusion solutions made by placing 400 μl (or 800 μl) stock into 4.6 ml (or 4.2 ml) unbuffered saline (0.9% NaCl) and adjusting the pH to ˜8.5 using 0.1 N NaOH.
Immunohistochemistry. […] Quantitative immunofluorescence was performed as described (Gerzanich et al., 2003).

[3] = tested on: rats with hemi-cervical spinal cord contusion (SCI); assay: SCI model: lesion size; format: in vivo, rat
Method: as §1, §2
Lesion size. At 7 d post-SCI, cords were paraffin sectioned and stained with H&E. Lesion volumes were calculated from lesion areas measured on serial sections every 250 μm.
Immunohistochemistry. Cryosections were immunolabeled (Chen et al., 2003; Simard et al., 2006) using primary antibodies directed against SUR1 (Santa Cruz, C-16; 1:200; 1 h at RT, 48 h at 4° C.), SUR2 (Santa Cruz, H-80; 1:200; 1 h at RT, 48 h at 4° C.), GFAP (Sigma, C-9205; 1:500), and vimentin (Sigma, monoclonal CY3 conjugated; 1:100). Quantitative immunofluorescence was performed as described (Gerzanich et al., 2003).

rats with percussion-TBI [4] = assay: Percussion-TBI model: spontaneous forelimb use and spontaneous vertical exploration; format: in vivo, rat
From the text: (§3) Young adult male Long-Evans rats, 240-280 gm, were studied. Rats were anesthetized (Ketamine and Xylazine) and physiological parameters including temperature and blood gases were maintained within appropriate physiological ranges. With the head fixed in a stereotaxic frame, a 6-mm circular craniectomy was created abutting the sagittal and lambdoidal sutures. A posterior location was chosen to emphasize damage to underlying hippocampus (Vink et al., 2001; Floyd et al., 2002). […] Sham controls underwent craniectomy without percussion.
Spontaneous forelimb use (SFU) was quantified and spontaneous vertical exploration (SVE) was quantified during 7 days post-TBI. SFU measures sensorimotor asymmetry (Schallert et al., 2000) whereas SVE measures not only vestibulomotor function but also time spent in exploratory activity.

[5] = tested on: rats with hemi-cervical spinal cord contusion (SCI); assay: SCI model: extravasated blood in cord (tissue blood); format: in vivo, rat
Method: as §1, with “blanket.” for “blanket. Blood gases and serum glucose 10-15 min post-SCI were: pO2, 95±6 mm Hg; pCO2, 46±3 mm Hg; pH, 7.33±0.01; glucose 258±17 mg/dl in controls and pO2, 96±7 mm Hg; pCO2, 45±2 mm Hg; pH, 7.37±0.01; glucose 242±14 mg/dl in glibenclamide-treated animals.”
(§4) For in vivo gene suppression of SUR1, we used oligodeoxynucleotides that were phosphorothioated at 4 distal bonds to protect against endogenous nucleases (35).
Tissue blood. Rats were sacrificed at various times after SCI (n=5-11 rats/group), were perfused with heparinized saline to remove intravascular blood, and 5-mm segments of cord encompassing the lesion were homogenized and processed as described (Choudhri et al., 1997).

rats with percussion-TBI [6] = assay: Percussion-TBI model: extravasated blood in brain homogenates; format: in vivo, rat
From the text: as §3

[7] = tested on: NCCa-ATP channels in bEnd.3 cells; assay: Perforated-patch whole-cell recording of endothelial cells, Na azide-induced ATP depletion; format: cell-based, murine; conditions: 1 μM glibenclamide; endothelial cells exposed to hypoxic conditions
Method: Patch clamp of endothelial cells was performed using a nystatin-perforated patch technique, to maintain the metabolic integrity of the cells. The identity of the activated channel can be assessed by measurement of the “reversal potential”, the potential at which an ion channel current reverses from inward to outward. With physiologically relevant concentrations of ions intracellularly and extracellularly (high potassium inside, high sodium outside), the reversal potential can unambiguously distinguish between a K^+ channel current such as KATP, which reverses negative to −50 mV and a non-selective cation channel current such as NCCa-ATP, which reverses near 0 mV.
Cell culture. Endothelial cell cultures from human brain microvessels, human aorta (ScienCell Research Laboratories), and murine brain microvessels (bEnd.3; ATCC), were grown at low density using media and supplements recommended by suppliers.

[8] = tested on: rats with hemi-cervical spinal cord contusion (SCI); assay: SCI model: neurobehavioral assessment (inclined plane, paw placement, rearing); format: in vivo, rat
Method: as §1, with “blanket.” for “blanket. Blood gases and serum glucose 10-15 min post-SCI were: pO2, 95±6 mm Hg; pCO2, 46±3 mm Hg; pH, 7.33±0.01; glucose 258±17 mg/dl in controls and pO2, 96±7 mm Hg; pCO2, 45±2 mm Hg; pH, 7.37±0.01; glucose 242±14 mg/dl in glibenclamide-treated animals.”
as §4
Neurobehavioral Assessment. All measurements were performed by blinded evaluators. Performance on the inclined plane was evaluated as described (Rivlin and Tator, 1977). To assess paw placement and vertical exploration (rearing) (Nikulina et al., 2004) animals were videotaped while in a translucent cylinder (19×20 cm). Rearing was quantified as the number of seconds spent with both front paws elevated above shoulder-height during a 3-min period of observation.

uninjured rats = assay: Tail tip bleeding time; format: in vivo, rat; conditions: for bleeding time (effect): uninjured rats infused with glibenclamide vs vehicle
Method: Bleeding times were measured using tail tip bleeding as described (Lorrain et al., 2003).

[9] = 1, 3 and 7 d post-SCI, glibenclamide vs vehicle

## COc1ccc(Cl)cc1C(=O)NCCc1ccc(S(=O)(=O)NC(=O)NC2CCCCC2)cc1 [glibenclamide]
[1]
  effect of proposed doses on serum glucose: only the highest are hypoglycemogenic, but only mildly so
[2]
  appearance of vimentin(+) capillaries: elongated and appeared more normal
[3]; 24 h post-SCI, vs controls
  lesions, gliosis and myelin (GFAP and myelin labeling): smaller lesions, less reactive gliosis and better myelin preservation
[3]; 7 d post-SCI, vs controls
  lesions on hematoxylin and eosin cross sections: smaller lesions
[3]; following SCI, compared to controls (summary)
  reduction in lesion volume: 3 fold
Rats with percussion-TBI [4]; 1, 2 and 7 days post-TBI, vs vehicle controls
  spontaneous vertical exploration (SVE): significantly greater
Rats with percussion-TBI [4]; 2 days post-TBI
  spontaneous use of the forelimb contralateral to the injury: 16.5±3.4%
[5]; 24 h post-SCI, glibenclamide 200 ng/h s.q. vs vehicle
  hemorrhage in cords (visual): visibly less hemorrhage
[5]; during the 24 h after injury, glibenclamide 200 ng/h s.q. vs vehicle
  extravasated blood in tissue homogenates: little increase
[5]; following SCI (summary)
  PHN: significantly reduced
Rats with percussion-TBI [6]; 24 hr post-injury, vs vehicle
  appearance of tissue homogenates: visibly less bloody
Rats with percussion-TBI [6]; later times (6 and 24 hr) post-TBI, vs vehicle
  increase in extravasated blood: prevented further increases in blood
Rats with percussion-TBI [6]; ½ hr post-injury, glibenclamide 200 ng/hr s.q. vs vehicle
  volume of blood in brain homogenate: did not affect
[7]
  block of Na azide-induced ohmic current: blocked
[8]; [9]
  performance on inclined plane: significantly better performance
  vertical exploratory behavior (rearing), performance: significantly better performance
[8]; 1 d post-SCI, additional groups, 14-15 rats/group, 3-min observation
  vertical exploratory behavior (rearing): 42 ± 7 s
[8]; 1 d post-SCI, glibenclamide vs vehicle
  ipsilateral paw placement: significantly better performance
[8]; post-SCI, vs vehicle-treated rats
  mobility / exploratory behavior: typically ambulatory and often exhibited proficient exploratory behavior
Uninjured rats
  bleeding time (effect): no effect
Uninjured rats; listed as Glibenclamide
  bleeding time (effect): did not affect
Uninjured rats; uninjured rats, same dose (200 ng/hr), n=3-5
  tail bleeding time: 21.5 ± 3.1 s
